The source of these data is PMC6879241 (Antimicrobial Agents and Chemotherapy, 2019).

The structures appear in SMILES notation. ≈ marks a conversion by molar mass, not a printed value. Where “and” joins values, the source holds several entries; their conditions need not be identical. Equal entries are not always repeated. Where two headings read alike, the source gives them in different places.

The target in one data set is human Topo I (Homo sapiens, UniProt P11387). The experiment in a line: biochemical.
Sequence of human Topo I (P11387 whole entry): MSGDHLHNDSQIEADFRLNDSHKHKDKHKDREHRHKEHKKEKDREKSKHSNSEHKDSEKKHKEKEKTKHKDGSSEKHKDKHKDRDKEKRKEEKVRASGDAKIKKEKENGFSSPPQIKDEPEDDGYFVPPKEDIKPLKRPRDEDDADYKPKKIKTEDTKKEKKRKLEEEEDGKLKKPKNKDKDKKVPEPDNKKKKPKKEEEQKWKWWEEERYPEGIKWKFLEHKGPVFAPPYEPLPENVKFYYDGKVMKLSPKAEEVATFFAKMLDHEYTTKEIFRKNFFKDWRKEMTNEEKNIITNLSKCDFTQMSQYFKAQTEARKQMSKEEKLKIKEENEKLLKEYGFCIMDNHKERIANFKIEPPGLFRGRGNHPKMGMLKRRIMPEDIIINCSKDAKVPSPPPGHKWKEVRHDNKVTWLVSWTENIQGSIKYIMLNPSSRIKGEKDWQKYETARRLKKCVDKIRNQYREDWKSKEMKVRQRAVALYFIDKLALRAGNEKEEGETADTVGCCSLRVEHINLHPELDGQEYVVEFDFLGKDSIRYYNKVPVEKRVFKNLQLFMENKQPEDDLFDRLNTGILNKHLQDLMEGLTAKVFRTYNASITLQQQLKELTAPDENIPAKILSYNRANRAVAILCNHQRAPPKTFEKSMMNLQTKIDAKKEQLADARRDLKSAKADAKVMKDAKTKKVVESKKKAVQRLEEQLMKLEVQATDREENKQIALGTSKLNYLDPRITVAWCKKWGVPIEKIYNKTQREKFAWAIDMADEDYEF
A further data set deals with B. mallei. As to the kind of experiment: microbe, parasite or virus in culture. It is filed as cell-based, Burkholderia mallei. The settings on record: for MIC50 / MIC90: Burkholderia mallei.
For another data set, the system named is F. tularensis. The experiment in a line: microbe, parasite or virus in culture. It is filed as cell-based, Francisella tularensis.
A further data set concerns B. anthracis. The experiment in a line: microbe, parasite or virus in culture. It is filed as cell-based, Bacillus anthracis.
For data set [1] the following is noted: not told.
Data set [2] has as its system intracellular B. pseudomallei 1026b. The experiment in a line: microbe, parasite or virus in culture. It is filed as cell-based, Burkholderia pseudomallei.
Data set [3] has as its system B. pseudomallei 1026b-based efflux-proficient and -compromised strains. As to the kind of experiment: microbe, parasite or virus in culture. It counts as cell-based. The settings on record: Burkholderia pseudomallei, read-out: MIC under efflux by BpeEF-OprC.
The subject of data set [4] is B. pseudomallei strain 1026b. It counts as cell-based, Burkholderia pseudomallei.
In another data set the target is E. coli Topo IV (Escherichia coli, UniProt P0AFI2+P20083). The experiment in a line: biochemical.
Sequence of E. coli Topo IV (P0AFI2 whole entry): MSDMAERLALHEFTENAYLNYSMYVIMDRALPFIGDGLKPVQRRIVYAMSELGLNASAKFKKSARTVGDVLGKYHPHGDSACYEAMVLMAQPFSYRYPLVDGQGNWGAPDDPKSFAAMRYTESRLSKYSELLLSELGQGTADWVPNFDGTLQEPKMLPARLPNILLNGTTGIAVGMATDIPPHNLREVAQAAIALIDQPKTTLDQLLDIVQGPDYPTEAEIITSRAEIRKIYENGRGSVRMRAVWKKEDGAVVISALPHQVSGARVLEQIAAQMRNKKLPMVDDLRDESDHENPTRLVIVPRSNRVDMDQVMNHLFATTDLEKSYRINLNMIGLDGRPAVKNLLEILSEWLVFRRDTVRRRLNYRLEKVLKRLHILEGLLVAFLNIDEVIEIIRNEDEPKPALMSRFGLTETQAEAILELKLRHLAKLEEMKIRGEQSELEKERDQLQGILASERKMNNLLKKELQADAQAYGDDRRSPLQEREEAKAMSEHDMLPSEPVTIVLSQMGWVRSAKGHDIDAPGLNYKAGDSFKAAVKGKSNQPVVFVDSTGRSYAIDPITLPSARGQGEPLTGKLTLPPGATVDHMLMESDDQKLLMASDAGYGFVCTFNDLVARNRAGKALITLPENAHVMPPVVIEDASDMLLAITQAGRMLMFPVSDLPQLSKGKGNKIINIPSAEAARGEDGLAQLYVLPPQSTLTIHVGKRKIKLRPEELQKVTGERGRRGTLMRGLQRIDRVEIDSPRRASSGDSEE
Sequence of E. coli Topo IV (P20083 whole entry): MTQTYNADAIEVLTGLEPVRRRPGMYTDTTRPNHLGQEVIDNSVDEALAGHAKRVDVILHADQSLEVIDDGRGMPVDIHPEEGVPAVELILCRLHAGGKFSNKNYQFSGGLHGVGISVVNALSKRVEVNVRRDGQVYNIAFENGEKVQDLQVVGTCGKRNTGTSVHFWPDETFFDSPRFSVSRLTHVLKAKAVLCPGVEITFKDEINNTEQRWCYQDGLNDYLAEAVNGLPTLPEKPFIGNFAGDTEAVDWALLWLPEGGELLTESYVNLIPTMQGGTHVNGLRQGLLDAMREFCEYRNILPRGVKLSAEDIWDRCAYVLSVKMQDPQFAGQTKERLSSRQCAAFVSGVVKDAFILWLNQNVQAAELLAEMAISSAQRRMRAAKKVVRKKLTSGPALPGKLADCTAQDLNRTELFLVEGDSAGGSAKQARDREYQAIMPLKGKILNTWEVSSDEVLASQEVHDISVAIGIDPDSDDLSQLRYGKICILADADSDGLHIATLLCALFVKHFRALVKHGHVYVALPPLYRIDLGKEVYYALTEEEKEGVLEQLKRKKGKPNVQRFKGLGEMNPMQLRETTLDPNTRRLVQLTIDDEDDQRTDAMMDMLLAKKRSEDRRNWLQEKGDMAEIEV
The subject of another data set is E. coli ATCC 25922. As to the kind of experiment: microbe, parasite or virus in culture. It is filed as cell-based. The settings on record: Escherichia coli, ATCC25922.
Another data set has as its system Y. pestis. The experiment in a line: microbe, parasite or virus in culture. It counts as cell-based, Yersinia pestis.
Another data set concerns the target S. aureus Topo IV (Staphylococcus aureus, UniProt P0C1S7+P0C1U9). As to the kind of experiment: biochemical.
Data set [5] concerns the target Quinolone-resistant E. coli gyrase (Escherichia coli, UniProt P0AES4+P0AES6). It is filed as biochemical. To be noted: read-out: IC50, E. coli quinolone-resistant gyrase.
The next data set deals with P. aeruginosa ATCC 27853. The experiment in a line: microbe, parasite or virus in culture. It is filed as cell-based. To be noted: Pseudomonas aeruginosa, ATCC27853.
For the next data set, the target named is S. aureus DNA gyrase (Staphylococcus aureus, UniProt P0A0K8+P20831). As to the kind of experiment: biochemical.
For another data set, the target named is E. coli DNA gyrase (Escherichia coli, UniProt P0AES4+P0AES6). As to the kind of experiment: biochemical.
In data set [6] the test system is B. pseudomallei strain 1026b. On the set-up: species or system BALB/c mice. The settings on record: mouse, in vivo.
In another data set the test system is B. pseudomallei. As to the kind of experiment: microbe, parasite or virus in culture. It counts as cell-based, Burkholderia pseudomallei. The settings on record: for MIC50 / MIC90: Burkholderia pseudomallei.
The subject of data set [7] is intracellular B. pseudomallei 1026b. To be noted: cited from earlier work.
Data set [8] has as its system B. pseudomallei strain 1026b. On the set-up: species or system BALB/c mice. The settings on record: mouse, in vivo. The source holds these as a separate data set.

For `Cc1c(-c2cc(F)c(N)cc2F)ccn2c(=O)c(C(=O)O)cc(C3CC3)c12` [GC-072], the concentration for half-maximal inhibition (IC50) (usually the midpoint of a concentration-inhibition curve) against human Topo I was over 100 µM; on E. coli Topo IV, 4.22 to 8.45 µM; against S. aureus Topo IV, 4 to 30 µM; in [5], 1.3 to 1.5 µM; against S. aureus DNA gyrase, 2 µM; at E. coli DNA gyrase, 0.18 to 1.5 µM. Also, the MIC range against B. mallei is at most 0.004 to 0.5 µg/mL; with F. tularensis, at most 0.0005 to 0.015 µg/mL; with B. anthracis it was at most 0.0005 to 0.004 µg/mL; in the data set with Y. pestis, 0.002 to 0.03 µg/mL; in the data set with B. pseudomallei, at most 0.008 to 1 µg/mL. The MIC50 in the data set with B. mallei is 0.015 µg/mL (≈ 0.0405 µM); against F. tularensis (Francisella tularensis), at most 0.0005 µg/mL; in the data set on B. anthracis (Bacillus anthracis), 0.001 µg/mL (≈ 0.0027 µM); in the data set with Y. pestis (Yersinia pestis) it was 0.008 µg/mL (≈ 0.0216 µM); in the data set with B. pseudomallei it was 0.12 µg/mL (≈ 0.324 µM). The MIC90 is 0.12 µg/mL (≈ 0.324 µM) against B. mallei; at most 0.0005 µg/mL in the data set with F. tularensis (Francisella tularensis); 0.002 µg/mL (≈ 0.0054 µM) with B. anthracis (Bacillus anthracis); 0.015 µg/mL (≈ 0.0405 µM) against Y. pestis (Yersinia pestis); 0.25 µg/mL (≈ 0.675 µM) with B. pseudomallei. Also, in data set [1], the permeability result is listed as “good”. Also, the “viable intracellular bacteria 24 h after initiation of treatment” value in data set [2] is on record as “no viable bacteria detectable”. The MIC in [2] (Burkholderia pseudomallei, read-out: MIC for B. pseudomallei strain 1026b measured for the intracellular experiment) is 0.25 µg/mL (≈ 0.675 µM); in data set [3], 0.5 to 1 µg/mL (≈ 1.35 to 2.7 µM); against E. coli ATCC 25922 it was at most 0.004 µg/mL; in the data set on P. aeruginosa ATCC 27853, 1 µg/mL (≈ 2.7 µM). Moreover, the “MIC for B. pseudomallei 1026b (time-kill study)” value in data set [4] amounted to 0.125 µg/mL. The “share of the full killing effect observed within 5 h” value in data set [4] is on record as “more than 75%”. Further, the “animals that survived to the end of the experiment” value in data set [6] was “four”. For the same compound, the median survival time in data set [6] is 4.5 days and 4.75 days and 5.63 days. The “overall survival rate of the treated groups” value in [6] is listed as 87%. Also, the survival in data set [6] was 90% and 80%. Moreover, the “share of strains with MICs higher than 0.5 μg/ml” value in the data set on B. pseudomallei was found to be 7%.
Take `N#Cc1c(N2C[C@@H]3NCCO[C@H]3C2)c(F)cc2c(=O)c(C(=O)O)cn(C3CC3)c12` [Finafloxacin, finafloxacin, reference compound]: the “MIC 50%” value is 0.25 µg/mL (≈ 0.628 µM) in the data set with B. mallei; at most 0.004 µg/mL against F. tularensis; 0.06 µg/mL (≈ 0.151 µM) against B. anthracis; 0.06 µg/mL (≈ 0.151 µM) in the data set on Y. pestis; 4 µg/mL (≈ 10 µM) against B. pseudomallei. For the same compound, the “MIC 90%” value in the data set with B. mallei is 2 µg/mL (≈ 5.02 µM); in the data set with F. tularensis, 0.008 µg/mL (≈ 0.0201 µM); against B. anthracis, 0.12 µg/mL (≈ 0.301 µM); against Y. pestis, 0.12 µg/mL (≈ 0.301 µM); against B. pseudomallei, 8 µg/mL (≈ 20.1 µM). In addition, the MIC range in the data set with B. mallei is 0.015 to 2 µg/mL; against F. tularensis, at most 0.004 to 0.12 µg/mL; in the data set with B. anthracis it was 0.03 to 0.12 µg/mL; with Y. pestis, 0.015 to 0.25 µg/mL.
Consider `C[C@@H](O)[C@H]1C(=O)N2C(C(=O)O)=C(S[C@@H]3CN[C@H](C(=O)N(C)C)C3)[C@H](C)[C@H]12` [Meropenem, meropenem], for which, in the data set on B. pseudomallei, the MIC range was at most 0.06 to 4 µg/mL, the MIC50 is 0.5 µg/mL (≈ 1.3 µM) and the MIC90 was found to be 1 µg/mL (≈ 2.61 µM).
At human Topo I, `O=C(O)c1cn(C2CC2)c2cc(N3CCNCC3)c(F)cc2c1=O` [Ciprofloxacin, ciprofloxacin] displayed an IC50 of over 100 µM. Further, the results for the MIC in the data set with E. coli ATCC 25922 and in the data set with P. aeruginosa ATCC 27853 were at most 0.008 µg/mL and 0.25 µg/mL (≈ 0.754 µM), respectively.
For the compound `CC(C)(O/N=C(\C(=O)N[C@@H]1C(=O)N2C(C(=O)[O-])=C(C[n+]3ccccc3)CS[C@H]12)c1csc(N)n1)C(=O)O` [Ceftazidime, ceftazidime], in [7], the “effect on intracellular survival of B. pseudomallei in macrophages” value is on record as “no effect”. Further, in the data set on E. coli ATCC 25922, the MIC worked out at 0.25 µg/mL (≈ 0.457 µM). Also, in data set [8], the survival is 100%. In the data set on P. aeruginosa ATCC 27853, this compound returned an MIC of 4 µg/mL (≈ 7.32 µM). For the same compound, in the data set with B. pseudomallei, the MIC50 worked out at 1 µg/mL (≈ 1.83 µM) and the MIC90 was 64 µg/mL (≈ 117 µM).
In the data set with B. mallei, `CC[C@H]1OC(=O)[C@H](C)[C@@H](O[C@H]2C[C@@](C)(OC)[C@@H](O)[C@H](C)O2)[C@H](C)[C@@H](O[C@@H]2O[C@H](C)C[C@H](N(C)C)[C@H]2O)[C@](C)(O)C[C@@H](C)CN(C)[C@H](C)[C@@H](O)[C@]1(C)O` [Azithromycin] came in with an MIC range of 0.12 to 1 µg/mL, an MIC50 of 0.5 µg/mL (≈ 0.668 µM) and an MIC90 of 0.5 µg/mL (≈ 0.668 µM).
With `C[C@H]1c2cccc(O)c2C(=O)C2=C(O)[C@]3(O)C(=O)C(C(N)=O)=C(O)[C@@H](N(C)C)[C@@H]3[C@@H](O)[C@@H]21` [Doxycycline, doxycycline], in the data set on E. coli ATCC 25922, the MIC is 1 µg/mL (≈ 2.25 µM). The compound also gave an MIC against P. aeruginosa ATCC 27853 of over 16 µg/mL. For the same compound, in the data set on B. pseudomallei, the MIC range is at most 0.06 to 32 µg/mL, the MIC50 is 0.5 µg/mL (≈ 1.13 µM) and the MIC90 was determined as 4 µg/mL (≈ 9 µM).
